In patent US20190112580A1, “METHODS FOR TREATING CO[…] AND RELATED CULTURED CELLS” (priority 2017, published 2019):

Assays:
ITGB1D = ITGB1D protein quantification by Western blotting; type: cell-based, human; details: 5 μM applied before differentiation; CP cultures; 48 hours of differentiation in low serum medium
Experimental: After separation, proteins were transferred to 0.45 μm nitrocellulose membrane in a Tris-glycine buffer complemented with 20% methanol. To visualize bands and detect transfer efficiency, membranes were stained with Ponceau S. Membranes were then blocked in a buffer containing 10 mM Tris, 0.15 M NaCl, 0.1% Tween-20 and 1% BSA and incubated with a desired primary antibody (typically 1:500 to 1:1000 dilution) overnight at 4° C. After washing, membranes were incubated with peroxidase-conjugated secondary antibodies (typically at a 1:1000 dilution) for 1 hour at room temperature (Jackson ImmunoResearch Laboratories). Bandscan was identified using chemiluminescence (ECL). Bands also were analyzed by densitometry on a PXi imager (Syngene) and values expressed as arbitrary values of protein levels, normalized either by total proteins transferred on nitrocellulose membrane (as visualized with Ponceau S) or by another reference protein detected by Western blotting.
To test for protein expression levels as shown in FIG. 3A to 3E and FIGS. 4D and 4E, Western blotting was used. […]

[1] = tested on: CpG island located in the promoter region of the human ITGB1 gene; assay: Promoter methylation PCR of ITGB1 CpG island; type: cell-based; details: 5 μM, 24-hour treatment in proliferation medium before differentiation
Experimental: Myoblast cell preparations from CP and TD study subjects were exposed to 5 μM of the DNA methyltransferase inhibitor 5-AZA in proliferation medium. 5-AZA was introduced while the myoblast cell preparations were being developed in the high-serum medium, once the myoblast cell preparations were at about 70% cell confluence by visual inspection. The myoblast cell preparations each were cultured in a high-serum medium in the presence of 5 μM of 5-AZA for 24 hours. The myoblast cell preparations then had the 5-AZA washed off by switching the myoblast cell preparations each to a low-serum medium.
Myoblasts were seeded at 50,000 cells/well, at approximately 13,000 cells/cm^2, in a 12-well plate and maintained in the same proliferation medium as described in Example 1. The cells were allowed to proliferate at 37° C. and 5% CO2 until they reach up to 50-80% cell confluence by visual inspection. The proliferating myoblasts are then treated with 5 μM 5-AZA (Sigma-Aldrich) for 24 hours to induce DNA hypomethylation before differentiation. 5-AZA was obtained from a 10 uM stock solution diluted 1:2000. In a 2000 mL well, 1 mL of 5 μM 5-AZA was used. […]
The PCR amplification curves or the intensity of the amplified product in the agarose gel following electrophoresis may be used to quantify the levels of DNA methylation for a specific promoter region. […]

[2] = tested on: CP and TD myoblast preparations; assay: Cell doubling time, xCELLigence RTCA DP; type: cell-based, human; details: 5 μM, 24 hours; FIG. 9B
Experimental: FIG. 9B. A cell impedance-measuring xCELLigence RTCA DP instrument was used to quantify rates of “cell doubling time” (a measurement of cell proliferation) in CP and TD myoblast preparations, treated and non-treated with 5-AZA, as illustrated in FIG. 9B. Proliferating myoblasts were treated with 5 μM 5-AZA (Sigma-Aldrich) for 24 hours to induce DNA hypomethylation. Other cell preparations were not treated with 5-AZA to serve as a control. Following treatment, myoblasts were harvested from exponential growth phase cultures by a standardized detachment procedure using 0.05% Trypsin-EDTA and counted. […] Plates were locked in the RTCA DP device in the incubator and the impedance value of each well was automatically monitored by the xCELLigence system and expressed as a Cell Index value (CI). […] CI was recorded every 15 min for the entirety of the period. Cell doubling time was calculated from the exponential phase of the growth curve generated by the CI values using the supplied RTCA software.
A cell impedance-measuring xCELLigence RTCA DP instrument was used to quantify rates of “cell doubling time” (a measurement of cell proliferation) in CP and TD myoblast preparations, treated and non-treated with 5-AZA, as illustrated in FIG. 9B. […] Following treatment, myoblasts were harvested from exponential growth phase cultures by a standardized detachment procedure using 0.05% Trypsin-EDTA and counted. […]

Structure (SMILES): Nc1ncn([C@@H]2O[C@H](CO)[C@@H](O)[C@H]2O)c(=O)n1 [5-AZA, 5-azacytidine]
- ITGB1D protein expression levels (ITGB1D): sufficient to restore ITGB1D protein expression levels
- DNA methylation of the CpG island in the ITGB1 promoter region [1]: sufficient to cause hypomethylation of the CpG island in the ITGB1 promoter region
- cell doubling time [2]: resulted in similar myoblast cell doubling times between CP and TD myoblasts
